pEC50, pIC50: −log10 of the molar value. Read-outs that look alike come from different tables or passages of the source. Blank lines part the entries; values can stand above or below the molecule they belong to.
Experiments:
Tubulin = Tubulin assembly induction; type: biochemical
MES SA = experiment: Cytotoxicity assay (CellTiter-Glo), MES SA; type: cell-based, human; conditions: MES-SA; human uterine sarcoma cell line; 72 hours, CellTiter-Glo; read-out: Cancer cell lines IC50, MES SA
MCF-7 = experiment: Cytotoxicity (GI50) assay, MCF-7; type: cell-based, human; conditions: MCF7; human breast cancer cell line; concentration required to decrease cell growth by 50%; read-out: Cancer cell lines GI50, MCF-7
MES SA DX = experiment: Cytotoxicity assay (CellTiter-Glo), MES SA DX; type: cell-based, human; conditions: Homo sapiens; MES SA cell line with marked multidrug resistance; 72 hours, CellTiter-Glo; read-out: Cancer cell lines IC50, MES SA DX
OVCAR-8 = experiment: Cytotoxicity (GI50) assay, OVCAR-8; type: cell-based, human; conditions: OVCAR-8; human ovarian cancer cell line; read-out: Cancer cell lines GI50, OVCAR-8
NCI/ADR-RES = experiment: Cytotoxicity (GI50) assay, NCI/ADR-RES; type: cell-based, human; conditions: highly drug resistant human ovarian cancer cell line, read-out: Cancer cell lines GI50, NCI/ADR-RES
MDA-MB-435 = experiment: Cytotoxicity (GI50) assay, MDA-MB-435; type: cell-based, human; conditions: MDA-MB-435; human melanoma cell line; read-out: Cancer cell lines GI50, MDA-MB-435
SNB-75 = experiment: Cytotoxicity (GI50) assay, SNB-75; type: cell-based, human; conditions: SNB-75; human glioblastoma cell line; read-out: Cancer cell lines GI50, SNB-75

SMILES: C/C(=C\c1csc(C)n1)[C@@H]1C[C@@H]2N(CCO)[C@]2(C)CCC[C@H](C)[C@H](O)[C@@H](C)C(=O)C(C)(C)[C@@H](O)CC(=O)O1 (stereo partly drawn) [compound 11, (1S,3S,7S,10R,11S,12S,16R)-7,11-Dihydroxy-17-(2-hydroxyethyl)-8,8,10,12,16-pentamethyl-3-[(1E)-1-(2-methyl-1,3-thiazol-4-yl)prop-1-en-2-yl]-4-oxa-17-azabicyclo[14.1.0]heptadecane-5,9-dione]
pEC50 (Tubulin; […]): 4.74
pIC50 (MES SA): 9.03
GI50 (MCF-7): 3 nM
pIC50 (MES SA DX): 7.86
GI50 (OVCAR-8): 4.5 nM
GI50 (NCI/ADR-RES; Homo sapiens, NCI/ADR-RES): 55 nM

SMILES: C/C(=C\c1csc(N)n1)[C@@H]1C[C@@H]2N(CCO)[C@]2(C)CCC[C@H](C)[C@H](O)[C@@H](C)C(=O)C(C)(C)[C@@H](O)CC(=O)O1 (stereo partly drawn) [compound 15, (1S,3S,7S,10R,11S,12S,16R)-3-[(1E)-1-(2-Amino-1,3-thiazol-4-yl)prop-1-en-2-yl]-7,11-dihydroxy-17-(2-hydroxyethyl)-8,8,10,12,16-pentamethyl-4-oxa-17-azabicyclo[14.1.0]heptadecane-5,9-dione]
pEC50 (Tubulin; […]): 4.89
GI50 (MDA-MB-435): 220 nM
pIC50 (MES SA): 7.44
GI50 (MCF-7): 330 nM
GI50 (SNB-75): 280 nM
pIC50 (MES SA DX): < 6.00
GI50 (OVCAR-8): 290 nM
GI50 (NCI/ADR-RES; Homo sapiens, NCI/ADR-RES): 3800 nM

SMILES: C/C(=C\c1ccccn1)[C@@H]1C[C@@H]2N(CCO)[C@]2(C)CCC[C@H](C)[C@H](O)[C@@H](C)C(=O)C(C)(C)[C@@H](O)CC(=O)O1 (stereo partly drawn) [compound 21, (1S,3S,7S,10R,11S,12S,16R)-7,11-Dihydroxy-17-(2-hydroxyethyl)-8,8,10,12,16-pentamethyl-3-[(1E)-1-(pyridin-2-yl)prop-1-en-2-yl]-4-oxa-17-azabicyclo[14.1.0]heptadecane-5,9-dione]
pEC50 (Tubulin; […]): < 4.22
GI50 (MDA-MB-435): 30 nM
pIC50 (MES SA): 9.16
GI50 (MCF-7): 250 nM
GI50 (SNB-75): 98 nM
pIC50 (MES SA DX): 6.12
GI50 (OVCAR-8): 170 nM
GI50 (NCI/ADR-RES; Homo sapiens, NCI/ADR-RES): 4000 nM

SMILES: CSc1nc(/C=C(\C)[C@@H]2C[C@@H]3N(CCN=[N+]=[N-])[C@]3(C)CCC[C@H](C)[C@H](O)[C@@H](C)C(=O)C(C)(C)[C@@H](O)CC(=O)O2)cs1 (stereo partly drawn) [compound 34, (1S,3S,7S,10R,11S,12S,16R)-17-(2-Azidoethyl)-7,11-dihydroxy-8,8,10,12,16-pentamethyl-3-{(1E)-1-[2-(methylsulfanyl)-1,3-thiazol-4-yl]prop-1-en-2-yl}-4-oxa-17-azabicyclo[14.1.0]heptadecane-5,9-dione]
pEC50 (Tubulin; […]): 5.27
GI50 (MDA-MB-435): 7.3 nM
pIC50 (MES SA): 9.62
GI50 (MCF-7): 13 nM
GI50 (SNB-75): 22 nM
pIC50 (MES SA DX): 9.28
GI50 (OVCAR-8): 15 nM
GI50 (NCI/ADR-RES; Homo sapiens, NCI/ADR-RES): 3.2 to 8.8 nM
GI50 (NCI/ADR-RES): 3.2 nM

SMILES: CSc1nc(/C=C(\C)[C@@H]2C[C@@H]3N[C@]3(C)CCC[C@H](C)[C@H](O)[C@@H](C)C(=O)C(C)(C)[C@@H](O)CC(=O)O2)cs1 [compound 14, (1S,3S,7S,10R,11S,12S,16R)-7,11-Dihydroxy-8,8,10,12,16-pentamethyl-3-{(1E)-1-[2-(methyl-sulfanyl)-1,3-thiazol-4-yl]prop-1-en-2-yl}-4-oxa-17-azabicyclo[14.1.0]heptadecane-5,9-dione]
pEC50 (Tubulin; […]): 5.30
GI50 (MDA-MB-435): 4.5 nM
pIC50 (MES SA): 9.55
GI50 (MCF-7): 4 nM
GI50 (SNB-75): 11 nM
pIC50 (MES SA DX): 8.25
GI50 (OVCAR-8): 16 nM

SMILES: CSc1nc(/C=C(\C)[C@@H]2C[C@@H]3N(CCN)[C@]3(C)CCC[C@H](C)[C@H](O)[C@@H](C)C(=O)C(C)(C)[C@@H](O)CC(=O)O2)cs1 (stereo partly drawn) [compound 37, (1S,3S,7S,10R,11S,12S,16R)-17-(2-Aminoethyl)-7,11-dihydroxy-8,8,10,12,16-pentamethyl-3-{(1E)-1-[2-(methylsulfanyl)-1,3-thiazol-4-yl]prop-1-en-2-yl}-4-oxa-17-azabicyclo[14.1.0]heptadecane-5,9-dione]
pEC50 (Tubulin; […]): 5.21
GI50 (MDA-MB-435): 15 nM
pIC50 (MES SA): 9.97
GI50 (MCF-7): 14 nM
GI50 (SNB-75): 23 nM
pIC50 (MES SA DX): 7.92
GI50 (OVCAR-8): 63 nM
GI50 (NCI/ADR-RES; Homo sapiens, NCI/ADR-RES): 70 nM

SMILES: CSc1nc(/C=C(\C)[C@@H]2C[C@@H]3N(CC4CC4)[C@]3(C)CCC[C@H](C)[C@H](O)[C@@H](C)C(=O)C(C)(C)[C@@H](O)CC(=O)O2)cs1 (stereo partly drawn) [compound 38, (1S,3S,7S,10R,11S,12S,16R)-17-(Cyclopropylmethyl)-7,11-dihydroxy-8,8,10,12,16-pentamethyl-3-{(1E)-1-[2-(methylsulfanyl)-1,3-thiazol-4-yl]prop-1-en-2-yl}-4-oxa-17-azabicyclo-[14.1.0]heptadecane-5,9-dione]
pEC50 (Tubulin; […]): 5.29
GI50 (MDA-MB-435): 9.5 nM
pIC50 (MES SA): 10.25
GI50 (MCF-7): 18 nM
GI50 (SNB-75): 16 nM
pIC50 (MES SA DX): 8.90
GI50 (OVCAR-8): 15 nM
GI50 (NCI/ADR-RES; Homo sapiens, NCI/ADR-RES): 18 nM

SMILES: CSc1cc(/C=C(\C)[C@@H]2C[C@@H]3N(CCO)[C@]3(C)CCC[C@H](C)[C@H](O)[C@@H](C)C(=O)C(C)(C)[C@@H](O)CC(=O)O2)nn1C (stereo partly drawn) [compound 23, (1S,3S,7S,10R,11S,12S,16R)-7,11-Dihydroxy-17-(2-hydroxyethyl)-8,8,10,12,16-pentamethyl-3-{(1E)-1-[1-methyl-5-(methylsulfanyl)-1H-pyrazol-3-yl]prop-1-en-2-yl}-4-oxa-17-azabicyclo[14.1.0]heptadecane-5,9-dione]
pEC50 (Tubulin; […]): 5.34
GI50 (MDA-MB-435): 12 nM
pIC50 (MES SA): 9.66
GI50 (MCF-7): 78 nM
GI50 (SNB-75): 10 nM
pIC50 (MES SA DX): 7.42
GI50 (OVCAR-8): 10 nM

SMILES: CSc1nc(/C=C(\C)[C@@H]2C[C@@H]3N(CCO)[C@]3(C)CCC[C@H](C)[C@H](O)[C@@H](C)C(=O)C(C)(C)[C@@H](O)CC(=O)O2)cs1 (stereo partly drawn) [compound 12, (1S,3S,7S,10R,11S,12S,16R)-7,11-Dihydroxy-17-(2-hydroxyethyl)-8,8,10,12,16-pentamethyl-3-{(1E)-1-[2-(methylsulfanyl)-1,3-thiazol-4-yl]prop-1-en-2-yl}-4-oxa-17-azabicyclo[14.1.0]-heptadecane-5,9-dione]
pEC50 (Tubulin; […]): 4.85
GI50 (MDA-MB-435): 42 nM
pIC50 (MES SA): 9.89
GI50 (MCF-7): 28 nM
GI50 (SNB-75): 60 nM
pIC50 (MES SA DX): 9.18
GI50 (OVCAR-8): 75 nM
GI50 (NCI/ADR-RES; Homo sapiens, NCI/ADR-RES): 55 nM

SMILES: CC(=Cc1csc(C)n1)C1CC=CCCCC(C)C(O)C(C)C(=O)C(C)(C)C(O)CC(=O)O1 (stereo not drawn) [compound 3, epothilone C, reference compound]
pEC50 (Tubulin): 4.74
pIC50 (MES SA): 7.50
GI50 (MCF-7): 70 nM
GI50 (OVCAR-8): 110 nM

SMILES: C/C(=C\c1csc(CN)n1)[C@@H]1C[C@@H]2N(CCO)[C@]2(C)CCC[C@H](C)[C@H](O)[C@@H](C)C(=O)C(C)(C)[C@@H](O)CC(=O)O1 (stereo partly drawn) [compound 13, (1S,3S,7S,10R,11S,12S,16R)-3-{(1E)-1-[2-(Aminomethyl)-1,3-thiazol-4-yl]prop-1-en-2-yl}-7,11-dihydroxy-17-(2-hydroxyethyl)-8,8,10,12,16-pentamethyl-4-oxa-17-azabicyclo[14.1.0]heptadecane-5,9-dione]
pEC50 (Tubulin; […]): < 4.22
GI50 (MDA-MB-435): 20 nM
pIC50 (MES SA): 10.11
GI50 (MCF-7): 65 nM
GI50 (SNB-75): 130 nM
pIC50 (MES SA DX): 9.07
GI50 (OVCAR-8): 93 nM
GI50 (NCI/ADR-RES; Homo sapiens, NCI/ADR-RES): 2800 nM

pEC50 (Tubulin; […]): 5.35
SMILES: C/C(=C\c1csc(C)n1)[C@@H]1C[C@@H]2O[C@]2(C)CCC[C@H](C)[C@H](O)[C@@H](C)C(=O)C(C)(C)[C@@H](O)CC(=O)N1 [compound 5, ixabepilone, reference compound]
GI50 (NCI/ADR-RES; Homo sapiens, NCI/ADR-RES): 1400 nM

SMILES: C/C(=C\c1nc2ccccc2s1)[C@@H]1C[C@@H]2N(CCO)[C@]2(C)CCC[C@H](C)[C@H](O)[C@@H](C)C(=O)C(C)(C)[C@@H](O)CC(=O)O1 (stereo partly drawn) [compound 24, (1S,3S,7S,10R,11S,12S,16R)-3-[(1E)-1-(1,3-Benzothiazol-2-yl)prop-1-en-2-yl]-7,11-dihydroxy-17-(2-hydroxyethyl)-8,8,10,12,16-pentamethyl-4-oxa-17-azabicyclo[14.1.0]heptadecane-5,9-dione]
pEC50 (Tubulin; […]): 5.10
GI50 (MDA-MB-435): 3.5 nM
pIC50 (MES SA): 9.74
GI50 (MCF-7): 11 nM
GI50 (SNB-75): 12 nM
pIC50 (MES SA DX): 8.88
GI50 (OVCAR-8): 23 nM
GI50 (NCI/ADR-RES; Homo sapiens, NCI/ADR-RES): 630 nM

SMILES: C/C(=C\c1csc(CCN)n1)[C@@H]1C[C@@H]2N(CCO)[C@]2(C)CCC[C@H](C)[C@H](O)[C@@H](C)C(=O)C(C)(C)[C@@H](O)CC(=O)O1 (stereo partly drawn) [compound 20, (1S,3S,7S,10R,11S,12S,16R)-3-{(1E)-1-[2-(2-Aminoethyl)-1,3-thiazol-4-yl]prop-1-en-2-yl}-7,11-dihydroxy-17-(2-hydroxyethyl)-8,8,10,12,16-pentamethyl-4-oxa-17-azabicyclo[14.1.0]heptadecane-5,9-dione]
pEC50 (Tubulin; […]): 5.04
GI50 (MDA-MB-435): 3.8 nM
pIC50 (MES SA): 7.79
GI50 (MCF-7): 15 nM
GI50 (SNB-75): 50 nM
pIC50 (MES SA DX): < 5.60
GI50 (OVCAR-8): 8.6 nM
GI50 (NCI/ADR-RES; Homo sapiens, NCI/ADR-RES): 45 nM

SMILES: C/C(=C\c1csc(C)n1)[C@@H]1C[C@@H]2N[C@]2(C)CCC[C@H](C)[C@H](O)[C@@H](C)C(=O)C(C)(C)[C@@H](O)CC(=O)O1 [compound 10, (1S,3S,7S,10R,11S,12S,16R)-7,11-Dihydroxy-8,8,10,12,16-pentamethyl-3-[(1E)-1-(2-methyl-1,3-thiazol-4-yl)prop-1-en-2-yl]-4-oxa-17-azabicyclo[14.1.0]heptadecane-5,9-dione]
pEC50 (Tubulin; […]): 4.72
pIC50 (MES SA): 10.40
GI50 (MCF-7): 2 nM
pIC50 (MES SA DX): 9.29
GI50 (OVCAR-8): 1.5 nM
GI50 (NCI/ADR-RES; Homo sapiens, NCI/ADR-RES): 35 nM
